As a reminder, the melting point is the temperature of the solid-liquid transition.

Regarding `Nc1nnc(SCc2ccccc2)s1`, the melting point was in the range of 159 to 161 °C.

The compound `O=C(O)c1cc(Cl)ccc1OC1CCCC1` yielded a melting point of 95 to 97 °C. For `N#Cc1ccc(Nc2cccc(C(=O)O)c2)cc1` the value was 247 to 249 °C; for `COc1ccccc1N(C)S(=O)(=O)c1ccc(C)c(C(=O)O)c1`, 153 to 155 °C; for `Cc1cccn2c(C=O)cnc12`, 83 to 85 °C. The compound `NC(Cn1ccccc1=O)=NO` gave a melting point of 211 to 213 °C. For `OC1CCN(c2ccc(Cl)nn2)CC1`, the melting point lay within 109 to 111 °C. `CC(C)(C)OC(=O)N1CCCC(C(C)(C)C(=O)O)C1` (stereo not given) returned a melting point of 96 to 98 °C. As to `Brc1c[nH]c2nc(C3CCCO3)nc-2c1` (stereo not given), the melting point fell in the range of 219 to 221 °C.

`Nc1ccc(S(=O)(=O)Nc2nncs2)cc1` had a melting point of 211 to 213 °C. Regarding `NNc1oc(-c2ccccc2)nc1C(N)=O`, the melting point was 173 to 175 °C. Compound `O=C(O)CCCc1nc(-c2ccccc2)no1` returned a melting point of 105 to 107 °C. Turning to `CC(C)(C)c1ccc(S(=O)(=O)CCN)cc1`, the melting point lay within 46 to 48 °C. For `O=C(O)CCNC(=O)Nc1ccc(Br)cc1`, the melting point fell in the range of 248 to 250 °C.

With `CCOc1ccc(OCCOc2ccc(C=CC(=O)O)cc2OCC)cc1`, the melting point lay within 182 to 184 °C. `CS(=O)(=O)c1ccc(F)c(S(=O)(=O)Cl)c1` yielded a melting point of 122 to 124 °C. For `Nc1ccc(C(=O)N2CCCc3ccccc32)cc1` the value was 210 to 212 °C. For `COc1ccc(Br)cc1C(=O)O` the value was 112 to 114 °C. `O=C(O)c1cc(S(=O)(=O)N2CCOCC2)ccc1F` gave a melting point of 201 to 203 °C. `O=C(Cn1cccn1)NC1CCCCC1` registered a melting point of 116 to 118 °C.

Compound `O=S(=O)(Cl)C=Cc1ccc(Cl)cc1` yielded a melting point of 131 to 133 °C. On to `O=C(O)Cc1csc(-c2ccc(F)c(F)c2)n1`, for which the melting point lay in the range of 202 to 204 °C. Consider `Cc1cc(N)c2cc(N)ccc2n1`, for which the melting point fell in the range of 212 to 214 °C.

Compound `CC(C)n1cc(Br)cc1C(=O)O` came in with a melting point of 148 to 150 °C. On to `COc1ccc(C(=O)c2ccc(OC)cc2OC)cc1`, for which the melting point lay in the range of 69 to 73 °C. Compound `CCOc1nnc(-c2ccccc2)n1-c1ccccc1` displayed a melting point of 154 to 156 °C. As for `CC(C)(C)C(=O)Nc1ccc(F)c(C(=O)O)c1`, the melting point was in the range of 179 to 181 °C.

Compound `CC1C=CC2C(=O)N(C(C)C)C(=O)C2C1C(=O)O` (stereo not given) registered a melting point of 149 to 151 °C. Consider `CCC(c1ccccc1)c1nnc(N)o1` (stereo not given), for which the melting point lay in the range of 197 to 199 °C.

`O=C(Cl)c1cc([N+](=O)[O-])ccc1Br` displayed a melting point of 62 to 64 °C. For `CC(C)CC(=O)Nc1ccccc1C(=O)O`, the melting point is 121 to 123 °C.

The compound `O=C(O)CCN1C(=O)CCC1=O` yielded a melting point of 131 to 133 °C.

For `CC(C)(C)c1ccc(=O)[nH]n1`, the melting point lay in the range of 163 to 165 °C. The compound `CC(Cl)C(=O)Nc1cccc([N+](=O)[O-])c1` (stereo not given) displayed a melting point of 115 to 117 °C. With `O=c1[nH]cnc2c(-c3ccccc3)nsc12`, the melting point was 256 to 258 °C.

`CN(C)CCOc1cc(C(=O)O)ccn1` showed a melting point of 173 to 175 °C. Then `COC(=O)c1cc(Cl)c2ccccc2n1`, with 121 to 123 °C; and `ClCc1nnc(-c2ccc(Br)s2)o1`, with 109 to 111 °C. On to `CC(C)(C)OC(=O)N1CC(CC(=O)O)C1`, for which the melting point fell in the range of 109 to 111 °C. Compound `FC(F)n1ccnc1Cn1cc(Br)cn1` gave a melting point of 79 to 81 °C.

Take `CCNS(=O)(=O)c1cc(/C=C/C(=O)O)ccc1OC`: the melting point is 198 to 200 °C. `Cc1nnnn1-c1cc(N)ccc1F` came in with a melting point of 109 to 111 °C. Turning to `Cc1c(CC(=O)O)nnn1-c1ccccc1`, the melting point lay within 169 to 171 °C. Then `CC(C)(C)Oc1ccc(N)cc1`, with 60 to 62 °C; and `Clc1ccc(-c2cc(CBr)on2)cc1`, with 116 to 118 °C. As to `Nc1nc(-c2ccc(NC(=O)c3ccccc3)cc2)cs1`, the melting point is 216 to 218 °C.

As to `CC(=O)c1ccc(N2CCNCC2)c(F)c1`, the melting point is 104 to 106 °C.

`COC(=O)C(=O)CC(=O)c1ccccc1` had a melting point of 58 to 60 °C. `COCCOc1ccc(Cl)cc1C(=O)O`: the melting point was 68 to 70 °C. Regarding `COc1cc(NC(=O)C(C)C)c(C(=O)O)cc1OC`, the melting point lay within 216 to 218 °C. Then `O=C(NCCO)c1ccc(Cl)nn1`, with 119 to 121 °C.

In turn, `Cc1ccc(C(=O)Nc2cccc(C=O)c2)cc1` showed a melting point of 130 to 132 °C. For `O=C(Cc1ccccc1)C[N+](=O)[O-]` the value was 48 to 50 °C; for `O=C(O)c1c[nH]cc1-c1ccc2c(c1)OCCO2`, 196 to 198 °C. For `COC(=O)c1cccc(C)c1C#N` the value was 69 to 71 °C; for `O=C(O)CCCOc1ccc(S(=O)(=O)Cl)cc1F`, 112 to 114 °C; for `c1ccc2[nH]c(-c3ccncc3)cc2c1`, 208 to 210 °C. `O=c1cc2c(n[nH]1)CCCC2` returned a melting point of 192 to 194 °C. For `O=Cc1ccc(-c2ccc(F)cc2)s1`, the melting point lay within 111 to 113 °C. For `O=[N+]([O-])c1ccn(C2CCCCC2O)n1` (stereo not given) the value was 94 to 96 °C. In turn, `COC(=O)COc1ccc2cc(Br)ccc2c1` yielded a melting point of 109 to 111 °C. Turning to `NC(=O)c1ccc(N)c(F)c1`, the melting point lay in the range of 152 to 154 °C.

Consider `CC(C)(C)OC(=O)NC1(C(N)=NO)CCCC1`, for which the melting point fell in the range of 168 to 170 °C. Then `CC1C(C(F)(F)F)OC(=O)N1c1ncccc1N` (stereo not given), with 62 to 64 °C. Regarding `O=C1CCCc2c1[nH]c1ccccc21`, the melting point lay within 169 to 171 °C. `CC(C)CNS(=O)(=O)c1ccc(Br)c(C(=O)O)c1`: the melting point lay in the range of 174 to 176 °C. Then `CCOC(=O)c1c(N)c(C#N)cn1C`, with 159 to 161 °C; and `CCOC(=O)c1cc(N2CCNC(=O)C2)ccc1N`, with 126 to 128 °C; and `N#Cc1ccc(OCC(=O)O)c(Cl)c1`, with 178 to 180 °C.

In turn, `CC(C)c1nnc(CCC(=O)O)o1` showed a melting point of 84 to 86 °C. Take `Nc1cc(C2CC2)no1`: the melting point lay in the range of 52 to 54 °C.

`Cc1[nH]n(C)c(=N)c1C` returned a melting point of 109 to 111 °C. In the case of `CC(=O)Nc1cccc(NC(=O)C(Br)C(C)C)c1` (stereo not given), the melting point lay within 179 to 181 °C. Compound `CC(C)(C)OC(=O)N1CCC(OC(=O)c2cccc(N)c2)CC1` registered a melting point of 124 to 126 °C. In turn, `CCC(=O)Cc1ccc(Cl)cc1Cl` came in with a melting point of 37 to 39 °C. In turn, `COc1cc(C(=O)O)cc(Br)c1O` showed a melting point of 197 to 199 °C. Compound `COC(=O)c1sccc1N=[N+]=[N-]` gave a melting point of 69 to 71 °C.

On to `COCc1cccc(CNC(=O)CCl)c1`, for which the melting point fell in the range of 41 to 43 °C.

`Clc1ccc2cc(Br)ccc2n1` came in with a melting point of 159 to 161 °C. Compound `O=C(O)C1CCN(C(=O)CCOc2ccccc2)CC1` gave a melting point of 127 to 129 °C. The compound `N#Cc1ccc(OCC(=O)NN)cc1` registered a melting point of 180 to 182 °C. As to `O=C(O)c1cnn(-c2ccccc2)c1C1CC1`, the melting point lay within 173 to 175 °C. In the case of `Cc1cc(/C=C/C(=O)O)c(C)n1-c1ccc2c(c1)OCO2`, the melting point is 194 to 196 °C.

The compound `Cc1cc(Cl)c2cc(F)c(F)c(F)c2n1` registered a melting point of 73 to 75 °C.

Consider `CC(C)N1C(=O)NC2(CCNC2)C1=O` (stereo not given), for which the melting point lay in the range of 98 to 100 °C.

Values taken from a melting point compilation (Tetko et al.).
